This test deals with hemoglobin (Hb) (Homo sapiens, UniProt P68871+P69905). As to the kind of experiment: oxygen equilibrium curves / P50 of hemoglobin treated with 2,3-BPG and phthalide compounds. Particulars: for effect of phthalide compound together with 2,3-BPG (lowering the oxygen affinity of hemoglobin): FIG. 1. It is filed as biochemical. The text has this: The oxygen affinity of hemoglobin is commonly characterized by P50 value. The P50 value is the required oxygen partial pressure for hemoglobin to achieve 50% oxygen saturation.
hemoglobin (Hb), sequence (P69905 2-142 limits assumed): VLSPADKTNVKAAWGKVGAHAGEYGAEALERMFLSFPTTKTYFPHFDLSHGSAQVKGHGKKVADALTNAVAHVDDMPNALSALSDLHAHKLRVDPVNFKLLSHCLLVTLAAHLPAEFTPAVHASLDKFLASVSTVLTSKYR
hemoglobin (Hb), sequence (P68871 2-147 limits assumed): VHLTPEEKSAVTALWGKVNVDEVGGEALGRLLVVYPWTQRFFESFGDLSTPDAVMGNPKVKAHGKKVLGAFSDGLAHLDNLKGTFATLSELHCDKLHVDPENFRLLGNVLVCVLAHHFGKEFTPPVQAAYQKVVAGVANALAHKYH

Consider `CCC/C=C1\OC(=O)C2=C1CC[C@@H](O)[C@@H]2O` [senkyunolide I], for which the “effect of phthalide compound together with 2,3-BPG (lowering the oxygen affinity of hemoglobin)” value was “synergistic effect”.
As for `O=C(O)C(COP(=O)(O)O)OP(=O)(O)O` (centres unmarked) [2,3-BPG, 2,3-bisphosphorglycerate], for the setting “1.2 mM 2,3-BPG, PO2 of 20 mmHg”, the “oxygen release efficiency of hemoglobin” value is reported as 40% and the “oxygen saturation fraction of hemoglobin” value is recorded as “approximately 60%”. In addition, the “oxygen saturation fraction of hemoglobin (Hb)” value (12 mM 2,3-BPG, fixed oxygen partial pressure of 20 mmHg, 80% where no 2,3-BPG is present) stood at 35%. Moreover, the oxygen release efficiency (12 mM 2,3-BPG, oxygen partial pressure 20 mmHg, 20% without 2,3-BPG) amounted to 65%. Also, under “FIG. 2, various 2,3-BPG concentrations up to 12.0 mM”, the “change of P50 value with 2,3-BPG concentration” value is “higher”. Moreover, the P50 value (approximately 4 mM 2,3-BPG, no phthalide compound) was 18.8 mmHg.
As to `CCC/C=C1\OC(=O)C2=C1CCC=C2` [Z-ligustilide], the “effect of phthalide compound together with 2,3-BPG (lowering the oxygen affinity of hemoglobin)” value is “synergistic effect”.

For the origin of these results see patent US20170266156A1, “METHOD FOR PREVENTING CANCER BY USING PHTHALIDES” (National Sun Yat-sen University, priority 2016, published 2017).
